The values that follow come from patent US8344159B2, “Carvedilol phosphate sesquihydrate” (priority 2006, dated 2013).

The nature of data set [1]: stability compared to carvedilol base. It counts as physicochemical. Particulars: color of final product, phosphate sesquihydrate.
A short description of data set [2]: solubility compared to carvedilol base.
The conditions of data set [3]: compared to the free base of carvedilol; disclosed in WO 2004/002419; cited from earlier work.

The structures appear in SMILES notation. Like-named read-outs stand apart in the source and are kept apart here.

Regarding `COc1ccccc1OCCNCC(O)COc1cccc2[nH]c3ccccc3c12.O=P(O)(O)O` (stereo not drawn) [carvedilol dihydrogen phosphate sesquihydrate], the stability entry in data set [1] is “More stable as compared to carvedilol base”. In data set [2], the solubility entry is “Better solubility as compared to carvedilol base”.
Consider `COc1ccccc1OCCNCC(O)COc1cccc2[nH]c3ccccc3c12.O=P(O)(O)O` (stereo not drawn) [carvedilol dihydrogen phosphate, Carvedilol dihydrogen phosphate], for which the solubility entry in data set [3] is recorded as “higher solubility when compared to the free base of carvedilol”.
